biological target: T1, SHP2 (Homo sapiens, UniProt Q06124); assay: SHP2 allosteric inhibitor enzyme activity assay (DiFMUP fluorescence); assay type: biochemical; conditions: class symbols
T1 sequence (Q06124 1-593): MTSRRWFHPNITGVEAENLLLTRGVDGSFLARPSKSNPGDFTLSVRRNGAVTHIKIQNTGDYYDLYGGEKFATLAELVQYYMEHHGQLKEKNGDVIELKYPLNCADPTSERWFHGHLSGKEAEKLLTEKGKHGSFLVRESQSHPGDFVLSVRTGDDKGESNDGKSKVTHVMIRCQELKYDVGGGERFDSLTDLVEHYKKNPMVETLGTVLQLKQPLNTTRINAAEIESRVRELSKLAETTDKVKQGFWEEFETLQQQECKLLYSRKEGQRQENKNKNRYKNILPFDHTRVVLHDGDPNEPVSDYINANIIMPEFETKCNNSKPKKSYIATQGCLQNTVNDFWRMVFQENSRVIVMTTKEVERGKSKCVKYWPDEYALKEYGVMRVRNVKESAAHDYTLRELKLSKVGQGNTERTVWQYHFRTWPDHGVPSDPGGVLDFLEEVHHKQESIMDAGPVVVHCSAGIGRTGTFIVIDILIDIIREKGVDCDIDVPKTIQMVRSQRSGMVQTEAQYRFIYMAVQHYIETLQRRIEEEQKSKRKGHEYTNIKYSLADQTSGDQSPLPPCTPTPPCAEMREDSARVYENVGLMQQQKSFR
How it was run: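 SHP2 activated by 0.5 μM IRS1_pY1172(dPEG8)pY1222 peptide, 0.2 ng enzyme per well, 1 h at room temperature with compound (1 μM top, 3-fold series), then DiFMUP substrate 1 h. Buffer: 60 mM HEPES, 75 mM NaCl, 75 mM KCl, 0.05% BRIJ-35, 1 mM EDTA, 5 mM DTT. Fluorescence ex 340/em 450 nm; IC50 by variable-slope fit.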

Compound	IC50
N[C@@H]1c2ccccc2CC12CCN(c1nc3[nH]nc(C4(c5nccs5)CC4)c3c(=O)[nH]1)CC2 [Example 84, (S)-6-(1-amino-1,3-dihydrospiro[indene-2,4′-piperidin]-1′-yl)-3-(1-(thiazol-2-yl)cyclopropyl)-1,5-dihydro-4H-pyrazolo[3,4-d]pyrimidin-4-one]	≤ 20 nM
N[C@@H]1c2ccccc2CC12CCN(c1nc3[nH]nc(C4(c5ccnc(-c6ccccn6)c5)CC4)c3c(=O)[nH]1)CC2 [Example 87, (S)-3-(1-([2,2′-bipyridin]-4-yl)cyclopropyl)-6-(1-amino-1,3-dihydrospiro[indene-2,4′-piperidin]-1′-yl)-1,5-dihydro-4H-pyrazolo[3,4-d]pyrimidin-4-one]	≤ 20 nM
Cn1c(N2CCC3(CC2)Cc2ccccc2[C@H]3N)nc2[nH]nc(C3(c4ccccc4)CCC3)c2c1=O [Example 91, (S)-6-(1-amino-1,3-dihydrospiro[indene-2,4′-piperidin]-1′-yl)-5-methyl-3-(1-phenylcyclobutyl)-1,5-dihydro-4H-pyrazolo[3,4-d]pyrimidin-4-one]	≤ 20 nM
N[C@@H]1c2ccccc2CC12CCN(c1nc3[nH]nc(C4(c5ccccc5)CCC4)c3c3nncn13)CC2 [Example 92, (S)-1′-(9-(1-phenylcyclobutyl)-7H-pyrazolo[4,3-e][1,2,4]triazolo[4,3-c]pyrimidin-5-yl)-1,3-dihydrospiro[indene-2,4′-piperidin]-1-amine]	≤ 20 nM
N[C@@H]1c2ccccc2CC12CCN(c1nc3[nH]nc(C4(c5ccccc5)CCOC4)c3c(=O)[nH]1)CC2 (stereo partly drawn) [Example 98, 6-((S)-1-amino-1,3-dihydrospiro[indene-2,4′-piperidin]-1′-yl)-3-(3-phenyltetrahydrofuran-3-yl)-1,5-dihydro-4H-pyrazolo[3,4-d]pyrimidin-4-one]	20 to 60 nM
N[C@@H]1c2ccccc2CC12CCN(c1nc3[nH]nc(C4(c5ccccc5)CCCCC4)c3c(=O)[nH]1)CC2 [Example 99, (S)-6-(1-amino-1,3-dihydrospiro[indene-2,4′-piperidin]-1′-yl)-3-(1-phenylcyclohexyl)-1,5-dihydro-4H-pyrazolo[3,4-d]pyrimidin-4-one]	20 to 60 nM
N[C@@H]1c2ccccc2CC12CCN(c1nc3[nH]nc(C4(c5ccccc5)CCOCC4)c3c(=O)[nH]1)CC2 [Example 100, (S)-6-(1-amino-1,3-dihydrospiro[indene-2,4′-piperidin]-1′-yl)-3-(4-phenyltetrahydro-2H-pyran-4-yl)-1,5-dihydro-4H-pyrazolo[3,4-d]pyrimidin-4-one]	20 to 60 nM
COc1ccccc1C1(c2n[nH]c3nc(N4CCC5(CC4)Cc4ccccc4[C@H]5N)[nH]c(=O)c23)CC12CCCC2 (stereo partly drawn) [Example 101, 6-((S)-1-amino-1,3-dihydrospiro[indene-2,4′-piperidin]-1′-yl)-3-(1-(2-methoxyphenyl)spiro[2.4]heptan-1-yl)-1,5-dihydro-4H-pyrazolo[3,4-d]pyrimidin-4-one]	20 to 60 nM
N[C@@H]1c2ccccc2CC12CCN(c1nc3[nH]nc([C@H]4C[C@H]4c4ccccc4)c3c(=O)[nH]1)CC2 [Example 105, 6-((S)-1-amino-1,3-dihydrospiro[indene-2,4′-piperidin]-1′-yl)-3-((1S,2R)-2-phenylcyclopropyl)-1,5-dihydro-4H-pyrazolo[3,4-d]pyrimidin-4-one]	≤ 20 nM
N[C@@H]1c2ccccc2CC12CCN(c1cnc3c([C@H]4C[C@H]4c4ccccc4)n[nH]c3n1)CC2 [Example 106, (S)-1′-(3-((1S,2R)-2-phenylcyclopropyl)-1H-pyrazolo[3,4-b]pyrazin-6-yl)-1,3-dihydrospiro[indene-2,4′-piperidin]-1-amine]	≤ 20 nM
N[C@@H]1c2ccccc2CC12CCN(c1nc3[nH]nc([C@H]4C[C@H]4c4ccccc4)c3c3nncn13)CC2 [Example 107, (S)-1′-(9-((1S,2R)-2-phenylcyclopropyl)-7H-pyrazolo[4,3-e][1,2,4]triazolo[4,3-c]pyrimidin-5-yl)-1,3-dihydrospiro[indene-2,4′-piperidin]-1-amine]	20 to 60 nM
CC1(C)CC(c2n[nH]c3nc(N4CCC5(CC4)Cc4ccccc4[C@H]5N)[nH]c(=O)c23)c2cccc(F)c21 (stereo partly drawn) [Example 109, 6-((S)-1-amino-1,3-dihydrospiro[indene-2,4′-piperidin]-1′-yl)-3-(4-fluoro-3,3-dimethyl-2,3-dihydro-1H-inden-1-yl)-1,5-dihydro-4H-pyrazolo[3,4-d]pyrimidin-4-one]	≤ 20 nM
N[C@@H]1c2ccccc2CC12CCN(c1nc3[nH]nc(C4CCCCc5ccccc54)c3c(=O)[nH]1)CC2 (stereo partly drawn) [Example 110, 6-((S)-1-amino-1,3-dihydrospiro[indene-2,4′-piperidin]-1′-yl)-3-(6,7,8,9-tetrahydro-5H-benzo[7]annulen-5-yl)-1,5-dihydro-4H-pyrazolo[3,4-d]pyrimidin-4-one]	≤ 20 nM

Other lines, results leading:

IC50	Compound
≤ 20 nM	Cn1ccc2c(C3(c4n[nH]c5nc(N6CCC7(CC6)Cc6ccccc6[C@H]7N)[nH]c(=O)c45)CC3)cccc21 [Example 81, (S)-6-(1-amino-1,3-dihydrospiro[indene-2,4′-piperidin]-1′-yl)-3-(1-(1-methyl-1H-indol-4-yl)cyclopropyl)-1,5-dihydro-4H-pyrazolo[3,4-d]pyrimidin-4-one]
≤ 20 nM	N[C@@H]1c2ccccc2CC12CCN(c1nc3[nH]nc(C4(c5cccc6c5CC(=O)N6)CC4)c3c(=O)[nH]1)CC2 [Example 82, (S)-6-(1-amino-1,3-dihydrospiro[indene-2,4′-piperidin]-1′-yl)-3-(1-(2-oxoindolin-4-yl)cyclopropyl)-1,5-dihydro-4H-pyrazolo[3,4-d]pyrimidin-4-one]
≤ 20 nM	N[C@@H]1c2ccccc2CC12CCN(c1nc3[nH]nc(C4(c5cccc6c5COC6)CC4)c3c(=O)[nH]1)CC2 [Example 83, (S)-6-(1-amino-1,3-dihydrospiro[indene-2,4′-piperidin]-1′-yl)-3-(1-(1,3-dihydroisobenzofuran-4-yl)cyclopropyl)-1,5-dihydro-4H-pyrazolo[3,4-d]pyrimidin-4-one]
≤ 20 nM	N[C@@H]1c2ccccc2CC12CCN(c1nc3[nH]nc(C4(c5cocn5)CC4)c3c(=O)[nH]1)CC2 [Example 85, (S)-6-(1-amino-1,3-dihydrospiro[indene-2,4′-piperidin]-1′-yl)-3-(1-(oxazol-4-yl)cyclopropyl)-1,5-dihydro-4H-pyrazolo[3,4-d]pyrimidin-4-one]
≤ 20 nM	N[C@@H]1c2ccccc2CC12CCN(c1nc3[nH]nc(C4(c5ccnc(-c6ccccc6)c5)CC4)c3c(=O)[nH]1)CC2 [Example 86, (S)-6-(1-amino-1,3-dihydrospiro[indene-2,4′-piperidin]-1′-yl)-3-(1-(2-phenylpyridin-4-yl)cyclopropyl)-1,5-dihydro-4H-pyrazolo[3,4-d]pyrimidin-4-one]
≤ 20 nM	Cn1ccc(-c2cc(C3(c4n[nH]c5nc(N6CCC7(CC6)Cc6ccccc6[C@H]7N)[nH]c(=O)c45)CC3)ccn2)n1 [Example 88, (S)-6-(1-amino-1,3-dihydrospiro[indene-2,4′-piperidin]-1′-yl)-3-(1-(2-(1-methyl-1H-pyrazol-3-yl)pyridin-4-yl)cyclopropyl)-1,5-dihydro-4H-pyrazolo[3,4-d]pyrimidin-4-one]
≤ 20 nM	Cc1ncccc1C1(c2n[nH]c3nc(N4CCC5(CC4)Cc4ccccc4[C@H]5N)[nH]c(=O)c23)CC1 [Example 89]
≤ 20 nM	N[C@@H]1c2ccccc2CC12CCN(c1nc3[nH]nc(C4(c5ccccn5)CCC4)c3c(=O)[nH]1)CC2 [Example 93, (S)-6-(1-amino-1,3-dihydrospiro[indene-2,4′-piperidin]-1′-yl)-3-(1-(pyridin-2-yl)cyclobutyl)-1,5-dihydro-4H-pyrazolo[3,4-d]pyrimidin-4-one]
≤ 20 nM	N[C@@H]1c2ccccc2CC12CCN(c1nc3[nH]nc(C4(c5cccs5)CCC4)c3c(=O)[nH]1)CC2 [Example 94, (S)-6-(1-amino-1,3-dihydrospiro[indene-2,4′-piperidin]-1′-yl)-3-(1-(thiophen-2-yl)cyclobutyl)-1,5-dihydro-4H-pyrazolo[3,4-d]pyrimidin-4-one]
≤ 20 nM	COc1cccc(C2(c3n[nH]c4nc(N5CCC6(CC5)Cc5ccccc5[C@H]6N)[nH]c(=O)c34)CCC2)c1 [Example 95, (S)-6-(1-amino-1,3-dihydrospiro[indene-2,4′-piperidin]-1′-yl)-3-(1-(3-methoxyphenyl)cyclobutyl)-1,5-dihydro-4H-pyrazolo[3,4-d]pyrimidin-4-one]
20 to 60 nM	N[C@@H]1c2ccccc2CC12CCN(c1nc3[nH]nc(C4(c5ccccc5)CCCC4)c3c(=O)[nH]1)CC2 [Example 97, (S)-6-(1-amino-1,3-dihydrospiro[indene-2,4′-piperidin]-1′-yl)-3-(1-phenylcyclopentyl)-1,5-dihydro-4H-pyrazolo[3,4-d]pyrimidin-4-one]

same assay, conditions: numeric values

Compound	IC50
N[C@@H]1c2ccccc2CC12CCN(c1nc3[nH]nc(C4CCCc5ncccc54)c3c(=O)[nH]1)CC2 (stereo partly drawn) [Example 108, 6-((S)-1-amino-1,3-dihydrospiro[indene-2,4′-piperidin]-1′-yl)-3-(5,6,7,8-tetrahydroquinolin-5-yl)-1,5-dihydro-4H-pyrazolo[3,4-d]pyrimidin-4-one]	1.9 nM
